From PubChem BioAssay (NCI)
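Dose response: 5 concentrations. Exposure: 48 h. Format: 96-well plates. Endpoint: linear interpolation; highest concentration if not reached. At the GI50, growth is halved. TGI is the concentration that stops growth completely.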

Columns and labels:
Assay in all cases: DTP human tumour cell line panel, 48 h
786-0 renal = test system: 786-0 renal
A498 renal = test system: A498 renal
A549 NSCLC = test system: A549 NSCLC
ACHN renal = test system: ACHN renal
CAKI-1 renal = test system: CAKI-1 renal
CCRF-CEM leukemia = test system: CCRF-CEM leukemia
COLO 205 colon = test system: COLO 205 colon
DU-145 prostate = test system: DU-145 prostate
EKVX NSCLC = test system: EKVX NSCLC
HCC-2998 colon = test system: HCC-2998 colon
HCT-116 colon = test system: HCT-116 colon
HCT-15 colon = test system: HCT-15 colon
HOP-62 NSCLC = test system: HOP-62 NSCLC
HOP-92 NSCLC = test system: HOP-92 NSCLC
HS 578T breast = test system: HS 578T breast
HT29 colon = test system: HT29 colon
IGROV1 ovarian = test system: IGROV1 ovarian
K-562 leukemia = test system: K-562 leukemia
KM12 colon = test system: KM12 colon
LOX IMVI melanoma = test system: LOX IMVI melanoma
M14 melanoma = test system: M14 melanoma
MCF7 breast = test system: MCF7 breast
MDA-MB-231 breast = test system: MDA-MB-231 breast
MOLT-4 leukemia = test system: MOLT-4 leukemia
NCI-H226 lung = test system: NCI-H226 lung
NCI-H23 lung = test system: NCI-H23 lung
NCI-H460 lung = test system: NCI-H460 lung
NCI-H522 lung = test system: NCI-H522 lung
NCI/ADR-RES ovarian = test system: NCI/ADR-RES ovarian
OVCAR-3 ovarian = test system: OVCAR-3 ovarian
OVCAR-4 ovarian = test system: OVCAR-4 ovarian
OVCAR-8 ovarian = test system: OVCAR-8 ovarian
PC-3 prostate = test system: PC-3 prostate
RPMI-8226 leukemia = test system: RPMI-8226 leukemia
SF-268 CNS = test system: SF-268 CNS
SF-295 CNS = test system: SF-295 CNS
SF-539 CNS = test system: SF-539 CNS
SK-MEL-2 melanoma = test system: SK-MEL-2 melanoma
SK-MEL-28 melanoma = test system: SK-MEL-28 melanoma
SK-MEL-5 melanoma = test system: SK-MEL-5 melanoma
SK-OV-3 ovarian = test system: SK-OV-3 ovarian
SN12C renal = test system: SN12C renal
SNB-19 CNS = test system: SNB-19 CNS
SNB-75 CNS = test system: SNB-75 CNS
SR leukemia = test system: SR leukemia
SW-620 colon = test system: SW-620 colon
T-47D breast = test system: T-47D breast
TK-10 renal = test system: TK-10 renal
U251 CNS = test system: U251 CNS
UO-31 renal = test system: UO-31 renal

**Q.** With COc1ccc(/C(=N/O)c2cc(F)c(F)c(OC)c2F)cc1O as the molecule, how does the GI50 (786-0 renal) read?
**A.** 10.5 µM

**Q.** And the TGI (786-0 renal)?
**A.** > 100 µM

**Q.** What about the GI50 (A498 renal) of the same molecule?
**A.** 3.79 µM

**Q.** What about the TGI (A498 renal) of the same molecule?
**A.** > 100 µM

**Q.** And the GI50 (A549 NSCLC)?
**A.** 1.06 µM

**Q.** What about the TGI (A549 NSCLC) of the same molecule?
**A.** > 100 µM

**Q.** What about the GI50 (ACHN renal) of the same molecule?
**A.** 0.94 µM

**Q.** What about the TGI (ACHN renal) of the same molecule?
**A.** > 100 µM

**Q.** And the GI50 (CAKI-1 renal)?
**A.** 0.538 µM

**Q.** And the TGI (CAKI-1 renal)?
**A.** > 100 µM

**Q.** And the GI50 (CCRF-CEM leukemia)?
**A.** 0.528 µM

**Q.** And the TGI (CCRF-CEM leukemia)?
**A.** 35.2 µM

**Q.** What about the GI50 (COLO 205 colon) of the same molecule?
**A.** 5.46 µM

**Q.** And the TGI (COLO 205 colon)?
**A.** 25.6 µM

**Q.** And the GI50 (DU-145 prostate)?
**A.** 1.88 µM

**Q.** What about the TGI (DU-145 prostate) of the same molecule?
**A.** > 100 µM

**Q.** What about the GI50 (EKVX NSCLC) of the same molecule?
**A.** 0.714 µM

**Q.** What about the TGI (EKVX NSCLC) of the same molecule?
**A.** > 100 µM

**Q.** What about the GI50 (HCC-2998 colon) of the same molecule?
**A.** 2.01 µM

**Q.** And the TGI (HCC-2998 colon)?
**A.** > 100 µM

**Q.** What about the GI50 (HCT-116 colon) of the same molecule?
**A.** 0.393 µM

**Q.** And the TGI (HCT-116 colon)?
**A.** > 100 µM

**Q.** And the GI50 (HCT-15 colon)?
**A.** 0.42 µM

**Q.** What about the TGI (HCT-15 colon) of the same molecule?
**A.** > 100 µM

**Q.** What about the GI50 (HOP-62 NSCLC) of the same molecule?
**A.** 0.502 µM

**Q.** And the TGI (HOP-62 NSCLC)?
**A.** > 100 µM

**Q.** And the GI50 (HOP-92 NSCLC)?
**A.** 18.9 µM

**Q.** And the TGI (HOP-92 NSCLC)?
**A.** > 100 µM

**Q.** What about the GI50 (HS 578T breast) of the same molecule?
**A.** 0.938 µM

**Q.** What about the TGI (HS 578T breast) of the same molecule?
**A.** > 100 µM

**Q.** What about the GI50 (HT29 colon) of the same molecule?
**A.** 3.6 µM

**Q.** And the TGI (HT29 colon)?
**A.** 65.4 µM

**Q.** What about the GI50 (IGROV1 ovarian) of the same molecule?
**A.** 0.815 µM

**Q.** And the TGI (IGROV1 ovarian)?
**A.** > 100 µM

**Q.** And the GI50 (K-562 leukemia)?
**A.** 0.271 µM

**Q.** And the TGI (K-562 leukemia)?
**A.** > 100 µM

**Q.** What about the GI50 (KM12 colon) of the same molecule?
**A.** 0.396 µM

**Q.** What about the TGI (KM12 colon) of the same molecule?
**A.** > 100 µM

**Q.** And the GI50 (LOX IMVI melanoma)?
**A.** 0.605 µM

**Q.** And the TGI (LOX IMVI melanoma)?
**A.** > 100 µM

**Q.** What about the GI50 (M14 melanoma) of the same molecule?
**A.** 0.344 µM

**Q.** What about the TGI (M14 melanoma) of the same molecule?
**A.** > 100 µM

**Q.** What about the GI50 (MCF7 breast) of the same molecule?
**A.** 0.329 µM

**Q.** What about the TGI (MCF7 breast) of the same molecule?
**A.** > 100 µM

**Q.** And the GI50 (MDA-MB-231 breast)?
**A.** 2.46 µM

**Q.** And the TGI (MDA-MB-231 breast)?
**A.** > 100 µM

**Q.** And the GI50 (MOLT-4 leukemia)?
**A.** 0.43 µM

**Q.** And the TGI (MOLT-4 leukemia)?
**A.** 30 µM

**Q.** And the GI50 (NCI-H226 lung)?
**A.** 15.8 µM

**Q.** And the TGI (NCI-H226 lung)?
**A.** > 100 µM

**Q.** And the GI50 (NCI-H23 lung)?
**A.** 1.9 µM

**Q.** And the TGI (NCI-H23 lung)?
**A.** > 100 µM

**Q.** What about the GI50 (NCI-H460 lung) of the same molecule?
**A.** 0.402 µM

**Q.** What about the TGI (NCI-H460 lung) of the same molecule?
**A.** > 100 µM

**Q.** And the GI50 (NCI-H522 lung)?
**A.** 0.259 µM

**Q.** What about the TGI (NCI-H522 lung) of the same molecule?
**A.** 3.3 µM

**Q.** What about the GI50 (NCI/ADR-RES ovarian) of the same molecule?
**A.** 0.309 µM

**Q.** And the TGI (NCI/ADR-RES ovarian)?
**A.** 19.1 µM

**Q.** And the GI50 (OVCAR-3 ovarian)?
**A.** 0.345 µM

**Q.** What about the TGI (OVCAR-3 ovarian) of the same molecule?
**A.** 16.5 µM

**Q.** What about the GI50 (OVCAR-4 ovarian) of the same molecule?
**A.** 9.1 µM

**Q.** And the TGI (OVCAR-4 ovarian)?
**A.** > 100 µM

**Q.** And the GI50 (OVCAR-8 ovarian)?
**A.** 3.1 µM

**Q.** What about the TGI (OVCAR-8 ovarian) of the same molecule?
**A.** > 100 µM

**Q.** And the GI50 (PC-3 prostate)?
**A.** 0.565 µM

**Q.** And the TGI (PC-3 prostate)?
**A.** > 100 µM

**Q.** What about the GI50 (RPMI-8226 leukemia) of the same molecule?
**A.** 0.43 µM

**Q.** And the TGI (RPMI-8226 leukemia)?
**A.** 23.7 µM

**Q.** And the GI50 (SF-268 CNS)?
**A.** 0.839 µM

**Q.** What about the TGI (SF-268 CNS) of the same molecule?
**A.** > 100 µM

**Q.** And the GI50 (SF-295 CNS)?
**A.** 0.392 µM

**Q.** What about the TGI (SF-295 CNS) of the same molecule?
**A.** 18.2 µM

**Q.** And the GI50 (SF-539 CNS)?
**A.** 0.427 µM

**Q.** What about the TGI (SF-539 CNS) of the same molecule?
**A.** 5.27 µM

**Q.** And the GI50 (SK-MEL-2 melanoma)?
**A.** 0.421 µM

**Q.** And the TGI (SK-MEL-2 melanoma)?
**A.** > 100 µM

**Q.** What about the GI50 (SK-MEL-28 melanoma) of the same molecule?
**A.** 10.8 µM

**Q.** And the TGI (SK-MEL-28 melanoma)?
**A.** > 100 µM

**Q.** And the GI50 (SK-MEL-5 melanoma)?
**A.** 0.599 µM

**Q.** And the TGI (SK-MEL-5 melanoma)?
**A.** 17.3 µM

**Q.** And the GI50 (SK-OV-3 ovarian)?
**A.** 0.523 µM

**Q.** What about the TGI (SK-OV-3 ovarian) of the same molecule?
**A.** > 100 µM

**Q.** And the GI50 (SN12C renal)?
**A.** 0.832 µM

**Q.** And the TGI (SN12C renal)?
**A.** > 100 µM

**Q.** And the GI50 (SNB-19 CNS)?
**A.** 0.827 µM

**Q.** What about the TGI (SNB-19 CNS) of the same molecule?
**A.** > 100 µM

**Q.** And the GI50 (SNB-75 CNS)?
**A.** 0.309 µM

**Q.** And the TGI (SNB-75 CNS)?
**A.** > 100 µM

**Q.** And the GI50 (SR leukemia)?
**A.** 0.241 µM

**Q.** What about the TGI (SR leukemia) of the same molecule?
**A.** 34.1 µM

**Q.** What about the GI50 (SW-620 colon) of the same molecule?
**A.** 0.435 µM

**Q.** And the TGI (SW-620 colon)?
**A.** > 100 µM

**Q.** And the GI50 (T-47D breast)?
**A.** 0.53 µM

**Q.** And the TGI (T-47D breast)?
**A.** 72.4 µM

**Q.** And the GI50 (TK-10 renal)?
**A.** 17.9 µM

**Q.** And the TGI (TK-10 renal)?
**A.** > 100 µM

**Q.** What about the GI50 (U251 CNS) of the same molecule?
**A.** 0.634 µM

**Q.** And the TGI (U251 CNS)?
**A.** > 100 µM

**Q.** And the GI50 (UO-31 renal)?
**A.** 1.36 µM

**Q.** What about the TGI (UO-31 renal) of the same molecule?
**A.** 90.9 µM
